Measurements from ChEMBL document CHEMBL5465560, “Selectivity Literature for EUbOPEN Chemogenomic Library” (2024).

Experiments:
D(1A) dopamine receptor = D(1A) dopamine receptor (Homo sapiens, UniProt P21728); assay: Selectivity interaction (Eurofins CEREP Diversity Profile (receptors and ion channels)) EUB0000279b DRD1; details: at 10 µM
[1] = target: T1, Myotonin-protein kinase (Homo sapiens) (UniProt Q09013); details: at 10 µM
T1 sequence (whole entry): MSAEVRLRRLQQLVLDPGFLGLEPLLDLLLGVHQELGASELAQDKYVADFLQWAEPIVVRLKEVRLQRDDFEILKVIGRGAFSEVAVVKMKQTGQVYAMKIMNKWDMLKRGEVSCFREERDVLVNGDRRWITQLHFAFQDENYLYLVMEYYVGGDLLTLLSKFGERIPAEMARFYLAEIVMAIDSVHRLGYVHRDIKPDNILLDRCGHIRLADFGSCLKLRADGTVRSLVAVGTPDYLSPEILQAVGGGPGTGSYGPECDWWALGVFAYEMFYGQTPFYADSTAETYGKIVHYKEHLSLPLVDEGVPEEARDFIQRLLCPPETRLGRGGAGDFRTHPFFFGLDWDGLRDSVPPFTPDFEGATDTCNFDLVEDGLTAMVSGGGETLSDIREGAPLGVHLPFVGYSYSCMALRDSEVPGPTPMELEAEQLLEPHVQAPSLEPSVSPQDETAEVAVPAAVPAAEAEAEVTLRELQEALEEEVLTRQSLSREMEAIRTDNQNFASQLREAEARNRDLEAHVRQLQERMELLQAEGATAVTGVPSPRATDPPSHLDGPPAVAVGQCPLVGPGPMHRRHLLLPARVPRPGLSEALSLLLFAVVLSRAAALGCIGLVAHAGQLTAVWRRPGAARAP

[2] = target: Tyrosine-protein kinase Fyn (Homo sapiens) (UniProt P06241); assay: Selectivity interaction (ActivX KiNativ screen (kinase selectivity in THP-1 cell lysates)) EUB0000639a FYN; assay type: subcellular; details: lysate, at 0.01 µM
[3] = target: T2, Mixed lineage kinase domain-like protein (Homo sapiens) (UniProt Q8NB16); assay: Selectivity interaction (ActivX KiNativ screen (kinase selectivity in THP-1 cell lysates)) EUB0000639a MLKL; assay type: subcellular; details: lysate
T2 sequence (whole entry): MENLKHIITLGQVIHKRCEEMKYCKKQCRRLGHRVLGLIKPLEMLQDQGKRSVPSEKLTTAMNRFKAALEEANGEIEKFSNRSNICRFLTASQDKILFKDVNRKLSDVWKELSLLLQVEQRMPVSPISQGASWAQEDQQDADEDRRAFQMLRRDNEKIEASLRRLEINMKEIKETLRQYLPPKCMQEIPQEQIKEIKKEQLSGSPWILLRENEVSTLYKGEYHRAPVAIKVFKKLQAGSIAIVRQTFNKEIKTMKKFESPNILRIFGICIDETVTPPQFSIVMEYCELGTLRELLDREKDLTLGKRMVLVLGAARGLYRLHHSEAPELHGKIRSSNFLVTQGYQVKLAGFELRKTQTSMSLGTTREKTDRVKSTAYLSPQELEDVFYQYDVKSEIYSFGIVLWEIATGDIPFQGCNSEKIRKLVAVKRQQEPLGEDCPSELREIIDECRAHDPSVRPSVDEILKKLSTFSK

[4] = target: T3, Activin receptor type-1B (Homo sapiens) (UniProt P36896); assay: Selectivity interaction (ProQinase) EUB0000171b ACVR1B
T3 sequence (whole entry): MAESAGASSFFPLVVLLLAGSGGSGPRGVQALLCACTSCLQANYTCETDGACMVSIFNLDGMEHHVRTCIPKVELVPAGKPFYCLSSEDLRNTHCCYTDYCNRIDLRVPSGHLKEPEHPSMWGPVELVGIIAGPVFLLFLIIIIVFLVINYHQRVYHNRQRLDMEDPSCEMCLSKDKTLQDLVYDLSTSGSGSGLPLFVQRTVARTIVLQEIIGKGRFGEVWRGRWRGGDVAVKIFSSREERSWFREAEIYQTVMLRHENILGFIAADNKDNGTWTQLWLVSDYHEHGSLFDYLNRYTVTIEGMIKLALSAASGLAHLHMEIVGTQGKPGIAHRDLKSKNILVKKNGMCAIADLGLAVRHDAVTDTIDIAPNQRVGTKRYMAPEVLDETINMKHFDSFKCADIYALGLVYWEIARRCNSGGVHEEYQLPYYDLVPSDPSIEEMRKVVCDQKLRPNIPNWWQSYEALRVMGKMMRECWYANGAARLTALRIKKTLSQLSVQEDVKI

[5] = target: Insulin receptor-related protein (Homo sapiens) (UniProt P14616); assay: Selectivity interaction (KinomeScan (DiscoverX)) EUB0000695a INSRR; details: at 100 nM
[6] = target: Calcium/calmodulin-dependent protein kinase type II subunit gamma (Homo sapiens) (UniProt Q13555); assay: Selectivity interaction (KinomeScan (DiscoverX)) EUB0000655a CAMK2G; details: at 10 µM
[7] = target: T4, Myosin light chain kinase family member 4 (Homo sapiens) (UniProt Q86YV6); details: at 10 µM
T4 sequence (whole entry): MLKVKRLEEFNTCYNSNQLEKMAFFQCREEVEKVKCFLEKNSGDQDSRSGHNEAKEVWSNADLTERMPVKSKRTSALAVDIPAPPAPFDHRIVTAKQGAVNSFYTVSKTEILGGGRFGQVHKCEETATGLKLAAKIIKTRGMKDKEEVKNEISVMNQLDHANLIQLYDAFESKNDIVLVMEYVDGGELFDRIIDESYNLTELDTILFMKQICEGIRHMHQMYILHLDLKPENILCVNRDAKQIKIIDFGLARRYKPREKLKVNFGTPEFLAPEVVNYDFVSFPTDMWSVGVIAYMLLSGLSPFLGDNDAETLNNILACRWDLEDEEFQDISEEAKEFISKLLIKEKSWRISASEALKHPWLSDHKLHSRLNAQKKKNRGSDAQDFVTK

[8] = target: Vascular endothelial growth factor receptor 3 (Homo sapiens, UniProt P35916); assay: Selectivity interaction (KinomeScan (DiscoverX)) EUB0001619a FLT4; details: at 1 µM
[9] = target: Ribosomal protein S6 kinase alpha-3 (Homo sapiens, UniProt P51812); assay: Selectivity interaction (KinomeScan (DiscoverX)) EUB0001619a RPS6KA3; details: at 1 µM
Sequence of Ribosomal protein S6 kinase alpha-3 (P51812 whole entry): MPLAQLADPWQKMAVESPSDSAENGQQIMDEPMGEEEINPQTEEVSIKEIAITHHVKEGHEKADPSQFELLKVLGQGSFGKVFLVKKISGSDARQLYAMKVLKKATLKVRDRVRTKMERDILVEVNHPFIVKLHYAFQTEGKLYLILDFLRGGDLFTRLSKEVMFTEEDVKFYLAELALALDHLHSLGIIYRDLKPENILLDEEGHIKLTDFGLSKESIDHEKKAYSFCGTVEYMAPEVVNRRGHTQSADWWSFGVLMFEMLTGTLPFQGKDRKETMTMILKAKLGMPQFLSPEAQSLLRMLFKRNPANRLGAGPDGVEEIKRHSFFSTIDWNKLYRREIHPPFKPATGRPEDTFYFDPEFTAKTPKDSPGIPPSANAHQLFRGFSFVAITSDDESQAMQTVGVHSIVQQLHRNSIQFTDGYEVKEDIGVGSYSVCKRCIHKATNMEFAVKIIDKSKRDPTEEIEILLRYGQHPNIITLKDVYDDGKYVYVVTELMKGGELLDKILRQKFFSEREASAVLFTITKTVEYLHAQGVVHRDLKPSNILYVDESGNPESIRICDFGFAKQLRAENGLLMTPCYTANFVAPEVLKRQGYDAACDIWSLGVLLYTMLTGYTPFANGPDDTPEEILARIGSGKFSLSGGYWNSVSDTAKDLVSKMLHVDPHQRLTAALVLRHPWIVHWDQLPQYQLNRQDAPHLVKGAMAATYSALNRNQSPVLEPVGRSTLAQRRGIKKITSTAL

Sequence of Insulin receptor-related protein (Homo sapiens) (P14616 27-742 limits assumed): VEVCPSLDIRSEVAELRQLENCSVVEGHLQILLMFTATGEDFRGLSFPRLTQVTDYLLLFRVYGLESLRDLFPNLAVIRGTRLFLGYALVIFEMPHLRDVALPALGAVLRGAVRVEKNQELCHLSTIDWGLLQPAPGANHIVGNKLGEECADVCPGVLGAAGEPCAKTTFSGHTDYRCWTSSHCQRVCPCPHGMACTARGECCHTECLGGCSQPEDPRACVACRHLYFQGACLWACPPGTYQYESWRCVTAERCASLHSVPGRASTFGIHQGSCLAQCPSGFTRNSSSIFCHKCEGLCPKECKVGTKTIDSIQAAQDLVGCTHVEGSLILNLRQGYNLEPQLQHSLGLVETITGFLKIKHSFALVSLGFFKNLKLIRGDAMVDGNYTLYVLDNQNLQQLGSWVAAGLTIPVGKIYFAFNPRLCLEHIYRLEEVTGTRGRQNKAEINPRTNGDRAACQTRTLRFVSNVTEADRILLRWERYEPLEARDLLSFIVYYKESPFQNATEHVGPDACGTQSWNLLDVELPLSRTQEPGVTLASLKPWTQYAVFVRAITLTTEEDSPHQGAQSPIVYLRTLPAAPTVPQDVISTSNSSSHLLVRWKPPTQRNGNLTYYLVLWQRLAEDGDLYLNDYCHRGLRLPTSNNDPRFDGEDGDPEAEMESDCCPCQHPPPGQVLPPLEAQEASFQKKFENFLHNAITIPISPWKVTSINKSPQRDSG
Sequence of Insulin receptor-related protein (Homo sapiens) (P14616 747-1297 limits assumed): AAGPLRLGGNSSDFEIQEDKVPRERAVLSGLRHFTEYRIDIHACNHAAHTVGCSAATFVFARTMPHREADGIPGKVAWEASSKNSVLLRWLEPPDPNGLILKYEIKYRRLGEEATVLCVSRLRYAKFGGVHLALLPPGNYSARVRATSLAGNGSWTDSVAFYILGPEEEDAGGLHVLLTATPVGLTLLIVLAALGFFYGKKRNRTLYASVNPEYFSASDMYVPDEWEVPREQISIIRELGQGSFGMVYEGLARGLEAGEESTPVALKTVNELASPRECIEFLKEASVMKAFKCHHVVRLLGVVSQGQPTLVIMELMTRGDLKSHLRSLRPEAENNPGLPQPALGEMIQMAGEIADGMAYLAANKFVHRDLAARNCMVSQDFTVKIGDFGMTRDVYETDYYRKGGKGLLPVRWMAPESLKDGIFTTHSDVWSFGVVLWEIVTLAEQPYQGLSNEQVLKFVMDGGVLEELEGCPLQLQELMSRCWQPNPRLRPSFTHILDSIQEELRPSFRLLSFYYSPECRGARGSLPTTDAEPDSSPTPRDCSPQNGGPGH
Sequence of Calcium/calmodulin-dependent protein kinase type II subunit gamma (Homo sapiens) (Q13555 whole entry): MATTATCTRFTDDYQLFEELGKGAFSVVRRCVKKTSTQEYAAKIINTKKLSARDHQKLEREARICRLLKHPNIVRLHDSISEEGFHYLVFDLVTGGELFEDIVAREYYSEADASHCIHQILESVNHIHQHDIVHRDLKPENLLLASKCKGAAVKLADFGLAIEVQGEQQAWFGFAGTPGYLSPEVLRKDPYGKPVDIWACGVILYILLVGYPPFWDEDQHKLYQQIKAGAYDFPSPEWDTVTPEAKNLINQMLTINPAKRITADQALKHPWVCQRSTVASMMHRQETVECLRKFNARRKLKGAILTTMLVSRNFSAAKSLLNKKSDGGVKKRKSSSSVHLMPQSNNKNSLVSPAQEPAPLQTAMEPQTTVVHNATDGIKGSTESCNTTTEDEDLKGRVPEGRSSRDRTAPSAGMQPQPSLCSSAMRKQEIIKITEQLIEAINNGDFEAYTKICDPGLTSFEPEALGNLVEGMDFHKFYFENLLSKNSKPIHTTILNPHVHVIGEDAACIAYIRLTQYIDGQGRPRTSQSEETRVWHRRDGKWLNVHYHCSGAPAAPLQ
Sequence of Tyrosine-protein kinase Fyn (Homo sapiens) (P06241 2-537 limits assumed): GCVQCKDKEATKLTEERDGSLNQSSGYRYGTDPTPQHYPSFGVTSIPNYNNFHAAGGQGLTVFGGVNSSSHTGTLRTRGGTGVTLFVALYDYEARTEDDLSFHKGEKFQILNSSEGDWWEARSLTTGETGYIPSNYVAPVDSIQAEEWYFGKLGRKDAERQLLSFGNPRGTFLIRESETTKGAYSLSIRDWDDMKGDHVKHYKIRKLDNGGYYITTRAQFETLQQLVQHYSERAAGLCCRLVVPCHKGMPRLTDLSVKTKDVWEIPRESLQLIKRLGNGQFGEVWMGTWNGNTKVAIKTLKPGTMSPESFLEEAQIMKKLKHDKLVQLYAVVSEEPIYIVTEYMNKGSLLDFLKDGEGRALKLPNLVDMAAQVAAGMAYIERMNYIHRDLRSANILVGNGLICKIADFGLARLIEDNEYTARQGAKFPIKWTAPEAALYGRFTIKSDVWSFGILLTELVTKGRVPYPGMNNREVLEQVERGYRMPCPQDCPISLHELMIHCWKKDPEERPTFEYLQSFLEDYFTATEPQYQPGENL
Sequence of D(1A) dopamine receptor (P21728 whole entry): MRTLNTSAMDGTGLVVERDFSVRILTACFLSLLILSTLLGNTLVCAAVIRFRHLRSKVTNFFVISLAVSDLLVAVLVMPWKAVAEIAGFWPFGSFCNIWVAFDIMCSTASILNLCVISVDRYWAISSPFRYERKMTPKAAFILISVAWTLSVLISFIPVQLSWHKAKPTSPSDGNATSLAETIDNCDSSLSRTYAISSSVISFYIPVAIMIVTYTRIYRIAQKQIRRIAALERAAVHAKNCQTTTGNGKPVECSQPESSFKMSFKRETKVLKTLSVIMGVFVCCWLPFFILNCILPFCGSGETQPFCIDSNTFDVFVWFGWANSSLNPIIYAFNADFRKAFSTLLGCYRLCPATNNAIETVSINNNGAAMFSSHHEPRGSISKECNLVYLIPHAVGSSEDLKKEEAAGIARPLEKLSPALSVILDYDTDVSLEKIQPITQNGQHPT
Sequence of Vascular endothelial growth factor receptor 3 (P35916 whole entry): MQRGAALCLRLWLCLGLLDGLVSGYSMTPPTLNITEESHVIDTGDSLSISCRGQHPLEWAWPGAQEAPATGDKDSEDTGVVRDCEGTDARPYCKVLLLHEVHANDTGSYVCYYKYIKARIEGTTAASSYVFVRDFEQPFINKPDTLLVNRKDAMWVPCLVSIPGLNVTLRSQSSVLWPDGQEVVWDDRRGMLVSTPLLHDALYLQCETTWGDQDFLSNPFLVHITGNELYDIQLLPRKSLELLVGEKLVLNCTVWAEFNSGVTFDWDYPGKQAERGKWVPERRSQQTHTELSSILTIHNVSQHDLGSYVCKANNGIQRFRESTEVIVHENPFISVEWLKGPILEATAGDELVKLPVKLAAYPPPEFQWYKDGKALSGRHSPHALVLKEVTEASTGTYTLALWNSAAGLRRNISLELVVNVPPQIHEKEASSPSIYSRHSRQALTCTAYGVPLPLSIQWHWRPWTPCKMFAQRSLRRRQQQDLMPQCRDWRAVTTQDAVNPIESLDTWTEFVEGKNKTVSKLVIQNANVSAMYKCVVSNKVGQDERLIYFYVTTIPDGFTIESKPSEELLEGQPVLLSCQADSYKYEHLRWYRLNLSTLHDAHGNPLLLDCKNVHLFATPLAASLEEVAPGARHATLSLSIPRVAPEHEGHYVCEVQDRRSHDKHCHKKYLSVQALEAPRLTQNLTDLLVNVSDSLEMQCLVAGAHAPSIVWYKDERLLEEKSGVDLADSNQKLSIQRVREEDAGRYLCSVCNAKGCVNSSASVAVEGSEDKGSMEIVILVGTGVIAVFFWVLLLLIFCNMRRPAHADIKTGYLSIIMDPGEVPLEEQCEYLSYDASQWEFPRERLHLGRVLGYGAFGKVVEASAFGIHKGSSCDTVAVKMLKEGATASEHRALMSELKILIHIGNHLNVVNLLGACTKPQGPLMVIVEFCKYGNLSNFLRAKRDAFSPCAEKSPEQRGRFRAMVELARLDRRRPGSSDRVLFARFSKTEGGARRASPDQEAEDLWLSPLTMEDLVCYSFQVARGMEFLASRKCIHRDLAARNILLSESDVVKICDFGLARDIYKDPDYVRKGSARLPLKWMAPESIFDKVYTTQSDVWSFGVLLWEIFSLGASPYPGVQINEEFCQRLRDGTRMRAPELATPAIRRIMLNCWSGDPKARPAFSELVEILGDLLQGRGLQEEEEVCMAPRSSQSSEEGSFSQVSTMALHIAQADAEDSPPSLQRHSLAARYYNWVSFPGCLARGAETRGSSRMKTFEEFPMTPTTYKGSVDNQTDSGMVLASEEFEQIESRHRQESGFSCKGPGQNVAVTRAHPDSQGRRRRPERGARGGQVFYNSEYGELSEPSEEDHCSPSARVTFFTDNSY

CC(=O)c1cc(-c2ccccc2OCC2CC2)c2ncccn12
% of control (D(1A) dopamine receptor): 90%

CCN(CC)CCCCNc1ncc2cc(-c3cc(OC)cc(OC)c3)c(NC(=O)NC(C)(C)C)nc2n1
% of control [1]: 100%

CC[C@@H]1[C@H](F)C(=O)N[C@@H]1COc1nccc2cc(C(N)=O)c(OC)cc12 [ZIMLOVISERTIB]
% of inhibition [2]: -8.5% | % of inhibition ([3]; at 0.01 µM): -3.7% | % of inhibition ([3]; at 0.04 µM): 7.2% | % of inhibition ([3]; at 0.2 µM): 16.3% | % of inhibition ([3]; at 1 µM): 42.3% | % of inhibition ([3]; at 5 µM): 76.6%

C=CC(=O)Nc1cccc(C(=O)Nc2ccc(Nc3cc(-c4[nH]c(SC)nc4C)ccn3)cc2)c1
% of control ([4]; at 1 µM): 94% | % of control ([4]; at 5 µM): 94%

Cc1cc(F)c(C(=O)Nc2cccc(-c3nncn3C(C)C)n2)cc1-n1cnc(C2CC2)c1
% of control [5]: 88%

CN(C)CCOc1ccc(-c2nc(-c3ccncc3)c(-c3ccc4c(c3)CC/C4=N\O)[nH]2)cc1
% of control [6]: 94%

Cc1cc([C@@H](C)Nc2ccccc2C(=O)O)c2nc(N3CCOCC3)cc(=O)n2c1 [AZD-6482]
% of control [7]: 98%

N#Cc1cccc(-c2c[nH]c3ncnc(N4CCOCC4)c23)c1
% of control [8]: 100% | % of control [9]: 46%
